We go through 10 compounds from patent publication US20240226228A1, “ANTIMICROBIAL PEPTOID HAVING IMPROVED SELECTIVITY AND ANTIMICROBIAL COMPOSITION COMPRISING SAME” (priority 2021, published 2024).

In data set [1] the test system is E. coli ATCC25922. As to conditions: for antimicrobial activity (in words): E. coli and S. aureus, compared to Peptoid 1, parent peptoid or TFA salt as stated; for antimicrobial activity against E. coli (in words): compared to Peptoid 1. As for the experimental part:
To measure the antimicrobial activity of the peptoids synthesized in Example 1, an E. coli ATCC25922 strain as gram-negative bacteria and an S. aureus KCTC25923 strain as gram-positive bacteris, were treated with the peptoids, followed by measuring the minimum inhibitory concentration (MIC). Peptoids 1 and 2 are antimicrobial peptoids known in the art, and used as controls for comparing antimicrobial activity with a novel peptoid.
Specifically, the S. aureus KCTC25923 or E. coli ATCC25922 strain was inoculated into a Mueller Hinton Broth (MHB2) liquid medium in which cations had been adjusted in the medium, cultured at 37° C. for 18 hours, subcultured, and then incubated for 4 hours. Afterward, for each bacterial strain, an optical density (OD, 0.001) was adjusted so that the bacterial count became 2×10^5 to 5×10^5 colony-forming units (CFU) per mL, which was then diluted with a MHB2 liquid medium containing 0.02% bovine serum albumin and 0.001% acetic acid, and dispensed at 100 μL into a 96-well microplate. Using sterile water, a peptoid stock 40 times stronger than a concentration to be tested was subjected to two-fold serial dilution and assessed at six different concentrations, and the maximum value of the peptoid concentrations was 25 μM. Subsequently, the plate was incubated at 37° C. for 24 hours. Afterward, optical density (OD) values at 600 nm were measured using a microplate reader (Bio-Rad).
Each MIC value was determined as the average value of a value obtained through three independent experiments.
Referring to Table 22, to measure the antimicrobial activity of the peptoids synthesized in Example 3, an MIC was measured by treating gram-negative bacteria, that is, the E. coli ATCC25922 strain, and gram-positive bacteria, that is, the S. aureus ATCC25923 strain, with the peptoids. Here, Peptoid 1 is a conventionally known antimicrobial peptoid, and Omiganan is a derivative of indolicidin, which is an antimicrobial peptide, under clinical development, and was used as a control for comparing antimicrobial activity with the novel peptoid.

Data set [2] deals with red blood cells. Briefly: Hemolysis assay. Format: cell-based, Sprague-Dawley mouse. As for the experimental part: To confirm cytotoxicity by the hemolytic activity of each peptoid synthesized in Example 1, hemolysis analysis was performed. The used blood was collected from a 13-week-old male Sprague-Dawley […] in a tube containing 158 UPS sodium heparin for preventing coagulation, and centrifuged at 4° C. for 10 minutes at 1,000 rpm. Afterward, the plasma was carefully removed, red blood cells were washed with phosphate-buffered saline (PBS: a mixed solution of 35 mM phosphate-buffered solution/150 mM NaCl, pH 7.4) three times and centrifuged at 1,000 rpm for 10 minutes. A 10% (v/v) red blood cell solution diluted in PBS was dispensed at 150 μL into a 96-well plate (microtiter plate), a peptoid solution was added at 50 μL, and 1% Triton X-100 was added. Afterward, the red blood cells were incubated at 37° C. for 1 hour, and the incubated 96-well plate was centrifuged at 1,000 rpm for 15 minutes. A supernatant was obtained and transferred to a new 96-well plate at 150 μL, and absorbance was measured using a spectrophotometer at 540 nm. Percent hemolysis may be calculated by the following Equation 1, and the corresponding results are shown in Tables 11 to 13. % Hemolysis=(A−C)/(B−C)×100 [Equation 1] In Equation 1, A is the absorbance of the peptoid solution at 540 nm, B is the absorbance of the 0.1% Triton X-100 at 540 nm, and C is the absorbance of the PBS solution at 540 nm.

Broadly, the HC50 is the concentration giving 50% haemolysis.

Where a SMILES comes first, the peptide text is derived from it. Where no end group is shown, it is not given here. [ ]: non-standard residue; d: D form. Gly(N(CH2)2(3-indolyl)) = O=C(O)CNCCc1c[nH]c2ccccc12; Gly(N-CH2CH2-imidazol-4-yl) = O=C(O)CNCCc1c[nH]cn1; Nspe = C[C@H](NCC(=O)O)c1ccccc1; Nlys = NCCCCNCC(=O)O

On to `C[C@@H](c1ccccc1)N(CC(=O)N(CCc1c[nH]cn1)CC(=O)N(CCc1c[nH]c2ccccc12)CC(=O)N(CCc1c[nH]c2ccccc12)CC(N)=O)C(=O)CN(CCCCN)C(=O)CN(CCCCN)C(=O)CN(C(=O)CN(C(=O)CN(CCCCN)C(=O)CN(C(=O)CN(C(=O)CNCCCCN)[C@@H](C)c1ccccc1)[C@@H](C)c1ccccc1)[C@@H](C)c1ccccc1)[C@@H](C)c1ccccc1` [Peptoid 77, H-NLys-Nspe-Nspe-NLys-Nspe-Nspe-NLys-NLys-Nspe-NHis-NhTrp-NhTrp-NH2] (H-[Nlys][Nspe][Nspe][Nlys][Nspe][Nspe][Nlys][Nlys][Nspe][Gly(N-CH2CH2-imidazol-4-yl)][Gly(N(CH2)2(3-indolyl))][Gly(N(CH2)2(3-indolyl))]-NH2), for which, in data set [1], the “antimicrobial activity (in words)” value is recorded as “reduced antimicrobial activity”. In addition, the “cytotoxicity against red blood cells / hemolysis (in words)” value in data set [2] is listed as “improved toxicity”.
Turning to “ILRWPWWPWRRK-NH2 [Omiganan, reference compound]”, in data set [1] (ATCC25922), the “MIC E. coli ATCC25922” value is reported as 12.5~25 μM. For the same compound, the “Hmax (100 μM)” value in data set [2] is 0.
For `C[C@@H](c1ccccc1)N(CC(N)=O)C(=O)CN(CCCCN)C(=O)CN(CCCCN)C(=O)CN(C(=O)CN(C(=O)CN(CCc1c[nH]cn1)C(=O)CN(C(=O)CN(C(=O)CN(CCCCN)C(=O)CN(CCc1c[nH]c2ccccc12)C(=O)CN(CCc1c[nH]c2ccccc12)C(=O)CNCCCCN)[C@@H](C)c1ccccc1)[C@@H](C)c1ccccc1)[C@@H](C)c1ccccc1)[C@@H](C)c1ccccc1` [Peptoid 74, H-NLys-NhTrp-NhTrp-NLys-Nspe-Nspe-NHis-Nspe-Nspe-NLys-NLys-Nspe-NH2] (H-[Nlys][Gly(N(CH2)2(3-indolyl))][Gly(N(CH2)2(3-indolyl))][Nlys][Nspe][Nspe][Gly(N-CH2CH2-imidazol-4-yl)][Nspe][Nspe][Nlys][Nlys][Nspe]-NH2), the “antimicrobial activity (in words)” value in data set [1] is “retained antimicrobial activity”. In addition, in data set [2], the “cytotoxicity against red blood cells / hemolysis (in words)” value is reported as “improved in toxicity”.
Take `C[C@@H](c1ccccc1)N(CC(N)=O)C(=O)CN(CCc1c[nH]cn1)C(=O)CN(CCCCN)C(=O)CN(C(=O)CN(C(=O)CN(CCCCN)C(=O)CN(C(=O)CN(C(=O)CN(CCCCN)C(=O)CN(CCc1c[nH]c2ccccc12)C(=O)CN(CCc1c[nH]c2ccccc12)C(=O)CNCCCCN)[C@@H](C)c1ccccc1)[C@@H](C)c1ccccc1)[C@@H](C)c1ccccc1)[C@@H](C)c1ccccc1` [Peptoid 76, H-NLys-NhTrp-NhTrp-NLys-Nspe-Nspe-NLys-Nspe-Nspe-NLys-NHis-Nspe-NH2] (H-[Nlys][Gly(N(CH2)2(3-indolyl))][Gly(N(CH2)2(3-indolyl))][Nlys][Nspe][Nspe][Nlys][Nspe][Nspe][Nlys][Gly(N-CH2CH2-imidazol-4-yl)][Nspe]-NH2): the “antimicrobial activity (in words)” value in data set [1] is “retained antimicrobial activity”. Also, the “cytotoxicity against red blood cells / hemolysis (in words)” value in data set [2] is given as “improved in toxicity”.
The like results for `C[C@@H](c1ccccc1)N(CC(=O)N(CCCCN)CC(=O)N(CCc1c[nH]c2ccccc12)CC(=O)N(CCc1c[nH]c2ccccc12)CC(N)=O)C(=O)CN(CCCCN)C(=O)CN(CCCCN)C(=O)CN(C(=O)CN(C(=O)CN(CCCCN)C(=O)CN(C(=O)CN(C(=O)CNCCc1c[nH]cn1)[C@@H](C)c1ccccc1)[C@@H](C)c1ccccc1)[C@@H](C)c1ccccc1)[C@@H](C)c1ccccc1` [Peptoid 81, H-NHis-Nspe-Nspe-NLys-Nspe-Nspe-NLys-NLys-Nspe-NLys-NhTrp-NhTrp-NH2] (H-[Gly(N-CH2CH2-imidazol-4-yl)][Nspe][Nspe][Nlys][Nspe][Nspe][Nlys][Nlys][Nspe][Nlys][Gly(N(CH2)2(3-indolyl))][Gly(N(CH2)2(3-indolyl))]-NH2) were, in that order, “retained antimicrobial activity” and “improved in toxicity”.
Regarding `C[C@@H](c1ccccc1)N(CC(=O)N(CCCCN)CC(=O)N(CCc1c[nH]c2ccccc12)CC(=O)N(CCc1c[nH]c2ccccc12)CC(N)=O)C(=O)CN(CCCCN)C(=O)CN(CCCCN)C(=O)CN(C(=O)CN(C(=O)CN(CCc1c[nH]cn1)C(=O)CN(C(=O)CN(C(=O)CNCCCCN)[C@@H](C)c1ccccc1)[C@@H](C)c1ccccc1)[C@@H](C)c1ccccc1)[C@@H](C)c1ccccc1` [Peptoid 80, H-NLys-Nspe-Nspe-NHis-Nspe-Nspe-NLys-NLys-Nspe-NLys-NhTrp-NhTrp-NH2] (H-[Nlys][Nspe][Nspe][Gly(N-CH2CH2-imidazol-4-yl)][Nspe][Nspe][Nlys][Nlys][Nspe][Nlys][Gly(N(CH2)2(3-indolyl))][Gly(N(CH2)2(3-indolyl))]-NH2), the “antimicrobial activity (in words)” value in data set [1] is “reduced antimicrobial activity”. Also, the “cytotoxicity against red blood cells / hemolysis (in words)” value in data set [2] is “improved toxicity”.
`C[C@@H](c1ccccc1)N(CC(=O)N(CCCCN)CC(=O)N(CC(=O)N(CC(=O)N(CCCCN)CC(=O)N(CC(=O)N(CC(=O)N(CCCCN)CC(=O)N(CC(=O)N(CC(=O)N(CCc1c[nH]c2ccccc12)CC(N)=O)[C@@H](C)c1ccccc1)[C@@H](C)c1ccccc1)[C@@H](C)c1ccccc1)[C@@H](C)c1ccccc1)[C@@H](C)c1ccccc1)[C@@H](C)c1ccccc1)C(=O)CN(C(=O)CN(CCCCN)C(=O)CNCCc1c[nH]c2ccccc12)[C@@H](C)c1ccccc1` [Peptoid 5, H-NhTrp-NLys-Nspe-Nspe-NLys-Nspe-Nspe-NLys-Nspe-Nspe-NLys-Nspe-Nspe-NhTrp-NH2] (H-[Gly(N(CH2)2(3-indolyl))][Nlys][Nspe][Nspe][Nlys][Nspe][Nspe][Nlys][Nspe][Nspe][Nlys][Nspe][Nspe][Gly(N(CH2)2(3-indolyl))]-NH2): the “antimicrobial activity against E. coli (in words)” value in data set [1] is “lost antimicrobial activities against E. coli”.
With `C[C@@H](c1ccccc1)N(CC(N)=O)C(=O)CN(C(=O)CN(CCCCN)C(=O)CN(C(=O)CN(C(=O)CN(CCCCN)C(=O)CN(C(=O)CN(C(=O)CN(CCCCN)C(=O)CN(C(=O)CN(C(=O)CN(CCCCN)C(=O)CN(CCc1c[nH]c2ccccc12)C(=O)CNCCc1c[nH]c2ccccc12)[C@@H](C)c1ccccc1)[C@@H](C)c1ccccc1)[C@@H](C)c1ccccc1)[C@@H](C)c1ccccc1)[C@@H](C)c1ccccc1)[C@@H](C)c1ccccc1)[C@@H](C)c1ccccc1` [Peptoid 6, H-NhTrp-NhTrp-NLys-Nspe-Nspe-NLys-Nspe-Nspe-NLys-Nspe-Nspe-NLys-Nspe-Nspe-NH2], the “antimicrobial activity against E. coli (in words)” value in data set [1] is reported as “lost antimicrobial activities against E. coli”.
Turning to `C[C@@H](c1ccccc1)N(CC(N)=O)C(=O)CN(C(=O)CN(CCCCN)C(=O)CN(C(=O)CN(C(=O)CN(CCCCN)C(=O)CN(C(=O)CN(C(=O)CN(CCCCN)C(=O)CN(C(=O)CN(CCCCN)C(=O)CN(CCCCN)C(=O)CN(CCc1c[nH]c2ccccc12)C(=O)CNCCc1c[nH]c2ccccc12)[C@@H](C)c1ccccc1)[C@@H](C)c1ccccc1)[C@@H](C)c1ccccc1)[C@@H](C)c1ccccc1)[C@@H](C)c1ccccc1)[C@@H](C)c1ccccc1` [Peptoid 36], in data set [2], the HC10 was determined as 15.3 µM, the HC50 was found to be 39.4 µM and the “Hmax (100 μM)” value is on record as 89.1 ± 3.4%.
The like results for `C[C@@H](c1ccccc1)N(CC(N)=O)C(=O)CN(C(=O)CN(CCCCN)C(=O)CN(CCc1c[nH]c2ccccc12)C(=O)CN(C(=O)CN(CCCCN)C(=O)CN(C(=O)CN(C(=O)CN(CCCCN)C(=O)CN(C(=O)CN(C(=O)CNCCCCN)[C@@H](C)c1ccccc1)[C@@H](C)c1ccccc1)[C@@H](C)c1ccccc1)[C@@H](C)c1ccccc1)[C@@H](C)c1ccccc1)[C@@H](C)c1ccccc1` [Peptoid 8] were, in that order, 12.8 µM, 28.4 µM and 105.1 ± 2.2%.
